Source: US20250283049A1, “AGENT FOR CULTURING ORGANOID IN ABSENCE OF EXTRACELLULAR MATRIX” (KEIO UNIVERSITY, priority 2022, published 2025)

Tests used:
Format in all cases: cell-based
[1] = system: crypts collected from the human colon; test: Organoid establishment from human colon crypts dissociated into single cells; cell number by ATP; settings: absence of Matrigel, presence of TRULI; compared with presence of Matrigel
Method: Crypts were collected from the human colon and dissociated into single cells, then cultured in the presence of Matrigel (registered trademark) or in the absence of Matrigel (registered trademark) and in the presence of TRULI to establish organoids. In addition, the cell number in each organoid under the given conditions was measured by measuring ATP using a commercially available kit (product name “CellTiter-Glo 3D,” Promega Corporation).
The upper panel of FIG. 30 is a schematic view explaining an overview of this experimental example. The lower panel of FIG. 30 is a graph showing the results of measuring the proliferation of the organoids.

[2] = system: human liver cell organoids; test: Culturing liver cell organoids in absence of Matrigel; number of viable cells (CellTiter-Glo 3D); settings: concentration not given
Method: Human liver cell organoids, established from primary human liver cells, were supplemented with TrypLE Express (Thermo Fisher Scientific) and incubated at 37° C. for 5 minutes to dissociate them into single cells.
The cells were then collected and suspended in proliferation medium separately supplemented with 2, 5, 10, 20, or 50 μM TDI-011536 (CAS No. 2687970-96-1), and […] seeded into an ultra-low attachment 96-well plate at 2,000 cells/well. The preferred seeding density is 2,000 to 4,000 cells/well. In addition, cells in proliferation medium supplemented with no TDI-011536 were prepared as a control.
The proliferation medium was a medium consisting of a basal medium (Advanced DMEM/F-12 medium, 10 mM HEPES, 2 mM GlutaMAX, 100 U penicillin, 100 μg/mL streptomycin) supplemented with 10% afamin-Wnt-3A conditioned medium, 2% R-spondin 1 conditioned medium, 2% Noggin conditioned medium, and 20 ng/ml Oncostatin M.
On day 6 after seeding, the number of viable cells in the human liver cell organoids was measured using a commercially available kit (product name “CellTiter-Glo 3D,” Promega Corporation).

[3] = system: phosphorylated YAP (Ser127); test: Examination of phosphorylation of YAP by Western blotting in human small intestine-derived organoids; settings: 10 μM; in both presence and absence of Matrigel; compared to when Lats-IN is absent
Method: Human small intestine-derived organoids were cultured in the absence and presence of Matrigel (registered trademark) and in the absence and presence of a LATS kinase inhibitor (final concentration: 10 μM), and phosphorylation of YAP was confirmed by Western blotting.
In FIG. 4, “pYAP” indicates phosphorylated YAP, and “YAP” indicates total YAP (the sum of phosphorylated YAP and non-phosphorylated YAP). The antibody against phosphorylated YAP used was phospho-YAP (Ser127) (#4911, Cell Signaling Technology, Inc.). The antibody against total YAP used was total-YAP (#14074, Cell Signaling Technology, Inc.).

[4] = system: human large intestine-derived organoid; test: Culture of organoids in presence of Matrigel and LATS kinase inhibitor; cell number by ATP (CellTiter-Glo 3D); settings: presence of Matrigel; 10 mM Lats-IN as printed; 7 days of culture; vs control without Lats-IN
Method: A human small intestine-derived organoid and a human large intestine-derived organoid were cultured in the presence of an inhibitor of LATS1 kinase and LATS2 kinase, Lats-IN-1 (CAS No. 1424635-83-5, hereinafter sometimes referred to as “Lats-IN” and also referred to as “TRULI”), and their dynamics were observed.
The human small intestine-derived organoid and the human large intestine-derived organoid used were those established from tissues derived from patients with gastrointestinal tumors who provided informed consent, in accordance with an ethical research plan approved by the Ethics Committee of the Keio University School of Medicine.
Each organoid was dissociated into single cells using TrypLE Express (Thermo Fisher Scientific Inc.) to obtain a cell suspension. […]
The cell proliferation was measured by measuring adenosine triphosphate (ATP) using a commercially available kit (product name “CellTiter-Glo 3D,” Promega Corporation).
The lower left panel of FIG. 2 is a photograph of a control (Ctrl) human large intestine-derived organoid cultured in the absence of Lats-IN, and the lower center panel of FIG. 2 is a photograph of a human large intestine-derived organoid cultured in the presence of Lats-IN. […] The vertical axis of the graph represents luminescence intensity (relative value) indicating the amount of ATP present.

[5] = system: human large intestine-derived organoids dissociated into single cells; test: Organoid formation from single cells (Examination 2); settings: absence of Matrigel, presence of TRULI 10 μM
Method: After dissociating human large intestine-derived organoids into single cells, organoid formation from the single cells was observed.
FIG. 27 is a graph showing the results of organoid formation from the single cells in the presence (+) or absence (−) of Matrigel (registered trademark) and in the absence (−) or presence (+, final concentration: 10 μM) of TRULI. […] In addition, the vertical axis of the graph represents the percentage (%) of cells that formed organoids among the seeded single cells.

[6] = system: stomach-derived organoids, biliary tract-derived organoids, and mammary gland-derived organoids; test: Culture of organoids derived from various organs in absence of Matrigel; settings: Lats-IN 10 μM
Method: It was examined whether organoids derived from various organs could be cultured in the absence of Matrigel (registered trademark) and in the absence or presence of Lats-IN (final concentration: 10 μM).
FIG. 11 presents representative photographs showing the results of culturing stomach-derived organoids, biliary tract-derived organoids, and mammary gland-derived organoids in the absence of Matrigel (registered trademark) and Lats-IN (Ctrl), or in the absence of Matrigel (registered trademark) and in the presence of Lats-IN (Lats-IN). The scale bar is 100 μm.

Structure (SMILES): O=C(N=c1sccn1Cc1ccccc1)c1c[nH]c2ncccc12 [Lats-IN]
- cell proliferation (ATP) during organoid establishment [1]: comparable to that observed in the presence of Matrigel
- increase in number of viable cells [2]: about three-fold
- phosphorylation of YAP [3]: significantly suppressed
- cell proliferation (cell number per well, ATP luminescence) [4]: significantly activated
- organoid formation from single cells [5]: proliferated from single cells and formed organoids
- cell proliferation (photographs) [6]: activated
